In ChEMBL document CHEMBL1143383, “Novel heteroaromatic organofluorine inhibitors of fructose-1,6-bisphosphatase” (J Med Chem, 2009):
pIC50: −log10 of the molar value.

Molecular target: T1, Fructose-1,6-bisphosphatase 1 (Mus musculus, UniProt Q9QXD6)
T1 sequence (Q9QXD6 whole entry): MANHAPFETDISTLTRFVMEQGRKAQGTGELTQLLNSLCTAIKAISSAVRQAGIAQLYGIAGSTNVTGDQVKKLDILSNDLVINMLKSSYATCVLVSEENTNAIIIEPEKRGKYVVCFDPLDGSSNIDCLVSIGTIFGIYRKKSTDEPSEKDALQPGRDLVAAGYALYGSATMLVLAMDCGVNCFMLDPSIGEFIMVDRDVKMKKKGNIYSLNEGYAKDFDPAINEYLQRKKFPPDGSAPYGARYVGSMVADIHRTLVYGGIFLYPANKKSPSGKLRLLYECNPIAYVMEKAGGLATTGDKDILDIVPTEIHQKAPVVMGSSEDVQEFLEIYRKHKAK
Test: Inhibition of fructose-1,6-bisphosphatase in mouse liver homogenates by colorimetric phosphate assay
Type: tissue-based

SMILES | pIC50
O=[N+]([O-])c1ccc(S(=O)(=O)n2cccc2)cc1 | 3.96
COC(=O)c1ccc2[nH]c3ccccc3c2c1 | < 3.52
CCOC(=O)C(O)(c1c[nH]c2ccc(I)cc12)C(F)(F)F (stereo not drawn) | 4.88
O=S(=O)(c1ccccc1)n1cccc1 | 4.12
O=[N+]([O-])c1ccc(S(=O)(=O)n2c3ccccc3c3ccccc32)cc1 | 3.75
COc1ccc(S(=O)(=O)n2c3ccccc3c3ccccc32)cc1 | < 3.60
Fc1ccc(-c2cc(-c3ccc(F)cc3)n(-c3cccc(C(F)(F)F)c3)n2)cc1 | 4.12
COc1ccc(S(=O)(=O)n2ccc3ccccc32)cc1 | < 3.52
CCOC(=O)CC(O)(c1[nH]c(C)cc1C)C(F)(F)F (stereo not drawn) | 5.32
COc1ccc2[nH]c3c(C)ccc(C)c3c2c1 | < 3.52
O=[N+]([O-])c1ccc(-n2nc(-c3ccccc3)cc2-c2ccccc2)cc1 | < 3.52
O=S(=O)(c1ccc2ccccc2c1)n1ccc2ccccc21 | < 3.52
FC(F)(F)c1cccc(-n2nc(-c3ccccc3)cc2-c2ccccc2)c1 | 5.22
O=C(c1ccc(F)cc1)n1ccc2ccccc21 | 3.89
Fc1ccc(-c2cc(-c3ccc(F)cc3)n(-c3ccccc3)n2)cc1 | 3.82
O=C(c1ccc(C(F)(F)F)cc1)n1ccc2ccccc21 | 5.51
CCOC(=O)C(O)(c1ccc[nH]1)C(F)(F)F (stereo not drawn) | 4.59
COc1ccc(S(=O)(=O)n2cccc2)cc1 | 3.61
CCOC(=O)CC(O)(c1cccn1C)C(F)(F)F (stereo not drawn) | 4.38
CCOC(=O)C(O)(c1cn(C)c2ccccc12)C(F)(F)F (stereo not drawn) | 4.93
Cc1ccc(S(=O)(=O)n2cccc2)cc1 | < 3.52
O=S(=O)(c1ccc2ccccc2c1)n1c2ccccc2c2ccccc21 | < 3.52
CCOC(=O)CC(O)(c1ccc[nH]1)C(F)(F)F (stereo not drawn) | 4.59
O=[N+]([O-])c1ccc(S(=O)(=O)n2ccc3ccccc32)cc1 | 3.73
Cc1ccccc1S(=O)(=O)n1cccc1 | < 3.60
CCOC(=O)C(O)(c1c[nH]c2ccc(C)cc12)C(F)(F)F (stereo not drawn) | 4.44
O=C(c1ccc([N+](=O)[O-])cc1)n1ccc2ccccc21 | < 3.52
O=S(=O)(c1ccccc1)n1ccc2ccccc21 | 3.92
